Experimental data as given in patent US20240181022A1, “AMURINS LYSINS, AND LYSIN-ANTIMICROBIAL PEPTIDE (AMP) CONSTRUCTS ACTIVE AGAINST GRAM-NEGATIVE BACTERIA” (priority 2021, published 2024).
Like-named read-outs stand apart in the source and are kept apart here. Where no end group is shown, it is not given here.

How the values were obtained:
[1] = system: M. abscessus; assay: MIC against MDR M. abscessus isolates; format: cell-based, Mycobacterium abscessus; settings: 7 days; for MIC: AST media (CAAT)
[2] = system: S. maltophilia; assay: Time-kill assay in cystic fibrosis patient sputum, S. maltophilia; format: cell-based, Stenotrophomonas maltophilia
From the text: (§1) Sputum from 5 cystic fibrosis patients was pooled. The resulting mixture was not filtered, as it was very dense and not amenable to sterilization by filtration. Sputum is known to be a complex mixture of DNA, carbohydrates, and lipids ([…], 2016). As used herein, the term “sputum” refers to the mucus present in the respiratory tract of an animal, such as a human. Sputum may increase in thickness due to the irritation or infection, including bacterial infection, and in some instances, may be expelled by the animal while coughing. In certain instances, cystic fibrosis may be characterized by the presence of a thick, sticky mucus or sputum present in the lungs of cystic fibrosis patients. The activity of GN370, AM1, AM2, AM3, and meropenem was determined in the sputum using a time-kill assay format as disclosed in Zhang et al., Antimicrobial peptide therapeutics for cystic fibrosis, Antimicrobial Agents Chemother. 2005; 49(7):2921-2927. […] Untreated controls were included in addition to pretreatment plating (t=0) for a baseline CFU determination. Activity was also determined in the absence of sputum for comparison to activity observed in the presence of sputum.

[3] = system: P. aeruginosa; assay: Serial passage resistance development study, P. aeruginosa; format: cell-based, Pseudomonas aeruginosa; settings: P. aeruginosa strain CFS 1292, Day 28
[4] = system: A. ruhlandii; format: cell-based, Achromobacter ruhlandii
Description: (§2) The MBEC (after 2-hour treatments) was determined as described in Jones and Wozniak, PsI Produced by Mucoid Pseudomonas aeruginosa Contributes to the Establishment of Biofilms and Immune Evasion, Am. Soc. Microbiol. 2017, 8(3):e00864-17. Meropenem and tobramycin were included as controls and were both poorly active, with MBEC90 values of >256 μg/mL (data not shown).

[5] = system: M. kansasii; assay: MIC against M. kansasii; format: cell-based, Mycobacterium kansasii; settings: M. kansasi (ATCC 12478); CAAT media
[6] = system: M. scrofulaceum; assay: MIC against M. scrofulaceum; format: cell-based, Mycobacterium scrofulaceum; settings: M. scrofulaceum (ATCC 19981); CAAT media
[7] = system: Mycobacterium species; format: cell-based
[8] = system: M. tuberculosis; format: cell-based, Mycobacterium tuberculosis
[9] = system: B. multivorans; assay: MIC by broth microdilution against B. multivorans; format: cell-based, Burkholderia multivorans; settings: B. multivorans isolates
Description: (§3) MIC values were determined using a modification of the standard broth microdilution reference method defined by the Clinical and Laboratory Standards Institute (CLSI), CLSL. 2015. Methods for Dilution Antimicrobial Susceptibility Tests for Bacteria That Grow Aerobically; Approved Standard-10th Edition. Clinical and Laboratory Standards Institute, Wayne, PA. The modification was based on the replacement of Mueller Hinton Broth with either CAA media (with and without NaCl) or CAA supplemented with 2.5% human serum. MIC is the minimum concentration of peptide sufficient to suppress at least 80% of the bacterial growth compared to control.
(§4) Based on these nine most prevalent strains, direct lytic agents, including GN370, AM1, AM2, and AM3, were evaluated against various isolates from each of the 9 strains. MICs and MBECs (Example 3) were determined, and a sputum inhibition test was conducted, as described below in Example 5.
(§5) The MICs for were determined as described below using the broth microdilution method for meropenem, GN370, AM1, AM2, and AM3. The results are shown below in Tables 8-12.

[10] = system: B. cenocepacia; format: cell-based, Burkholderia cenocepacia
Description: as §2

[11] = system: B. cenocepacia; assay: MIC by broth microdilution against B. cenocepacia; format: cell-based, Burkholderia cenocepacia; settings: B. cenocepacia isolates
Description: as §3, §4, §5

[12] = system: P. aeruginosa
[13] = system: M. intracellulare; assay: MIC against M. intracellulare; format: cell-based, Mycobacterium intracellulare; settings: M. intracellulare (ATCC 13950); CAAT media
[14] = system: A. dolens; format: cell-based, Achromobacter dolens
Description: as §2

[15] = system: P. aeruginosa; assay: Time-kill assay in cystic fibrosis patient sputum, P. aeruginosa; format: cell-based, Pseudomonas aeruginosa
From the text: as §1

[16] = system: Achromobacter spp.; assay: MIC by broth microdilution against Achromobacter spp.; format: cell-based; settings: Tables 8-12
Description: as §3, §5

[17] = α-hemolytic P. aeruginosa isolates (n = 13)

What does the source list for “MRLKMARRRYRLPRRRSRRLFSRTALRMHPRNRLRRIMRGGIRF [AM1]”?
activity (MIC) against M. abscessus ([1]; 5 clinical MDR strains and 1 ATCC strain, CAAT): highly active; MIC ([1]; M. abscessus strain BK51402): 1 µg/mL; MIC ([1]; M. abscessus strain BK51403 (ATCC 19977)): 2 µg/mL; MIC ([1]; M. abscessus strain BK51408): 4 µg/mL; MIC ([1]; M. abscessus strain BK55096): 1 µg/mL; MIC ([1]; M. abscessus strain BK55691): 1 µg/mL; MIC ([1]; M. abscessus strain BK58156): 2 µg/mL; effect of sputum on antibacterial activity ([2]; 10% CF sputum vs no sputum): none of GN370, AM1, AM2, and AM3 was inhibited; Log10 CFU/mL of sputum ([2]; absence of sputum, 1 hr): 2.3 Log10 CFU/mL of sputum; Log10 CFU/mL of sputum ([2]; absence of sputum, 3 hr): 2.3 Log10 CFU/mL of sputum; Log10 CFU/mL of sputum ([2]; absence of sputum, 24 hr): 2.3 Log10 CFU/mL of sputum; Log10 CFU/mL of sputum ([2]; presence of 10% sputum, 1 hr): 2.3 Log10 CFU/mL of sputum; Log10 CFU/mL of sputum ([2]; presence of 10% sputum, 3 hr): 2.3 Log10 CFU/mL of sputum; Log10 CFU/mL of sputum ([2]; presence of 10% sputum, 24 hr): 2.3 Log10 CFU/mL of sputum; killing by 1 hour, maintained at 24 hours ([2]; time-kill): complete killing; change in MIC over serial passage [3]: no significant changes; MBEC50 [4]: 16 µg/mL; MBEC90 [4]: 16 µg/mL; MBEC Range [4]: 2 to 16 µg/mL; MIC [5]: 2 µg/mL; MIC [6]: 0.5 µg/mL; activity (MIC) against Mycobacterium species [7]: highest activity; MIC ([8]; M. tuberculosis (ATCC 35817), (ADC, T) media): 8 µg/mL; MIC ([8]; M. tuberculosis strain TN8109_LB (MDR), 7H9 broth, 20 days): 4 µg/mL; MIC ([8]; M. tuberculosis strain TN8562_M33 (susc), 7H9 broth, 20 days): 4 µg/mL; MIC ([8]; M. tuberculosis strain TN10525_LL (MDR), 7H9 broth, 20 days): 8 µg/mL; MIC ([8]; M. tuberculosis strain TN10571_KY (MDR), 7H9 broth, 20 days): 2 µg/mL; MIC ([8]; M. tuberculosis strain TN12657_KQ15 (IS), 7H9 broth, 20 days): 16 µg/mL; MIC ([8]; M. tuberculosis strain TN13923_HD17 (susc), 7H9 broth, 20 days): 16 µg/mL; MIC ([8]; M. tuberculosis strain TN18349_W738 (susc), 7H9 broth, 20 days): 0.5 µg/mL; MIC ([8]; M. tuberculosis strain TN34503_001 (susc), 7H9 broth, 20 days): 0.5 µg/mL; MIC50 [9]: 128 µg/mL; MIC90 [9]: > 128 µg/mL; MBEC50 [10]: 16 µg/mL; MBEC90 [10]: 32 µg/mL; MBEC Range [10]: 2 to 32 µg/mL; MIC50 [11]: > 128 µg/mL; MIC90 [11]: > 128 µg/mL; AM1 MIC50 [12]: 0.25 µg/mL; AM1 MIC90 [12]: 0.5 µg/mL; MIC50 [12]: 0.25 µg/mL; MIC90 [12]: 0.5 µg/mL; MIC Range ([12]; MDR P. aeruginosa isolates (n = 13), in µg/mL): 0.016-0.5; MIC50 ([12]; P. aeruginosa isolates): 0.25 µg/mL; MIC90 ([12]; P. aeruginosa isolates): 0.5 µg/mL; MIC ([12]; P. aeruginosa test organism of the sputum time-kill assay): (MIC = 1); activity (MIC) against P. aeruginosa isolates ([12]; all tested isolates, Tables 8-12): highly active; AM1 MIC Range ([12]; carbapenem-resistant P. aeruginosa isolates (n = 17)): 0.016-0.5; MIC50 [12, 17]: 0.25 µg/mL; MIC90 [12, 17]: 0.5 µg/mL; MIC [13]: 0.5 µg/mL; MBEC50 [14]: 2 µg/mL; MBEC90 [14]: 4 µg/mL; MBEC Range [14]: 1 to 8 µg/mL; effect of sputum on antibacterial activity ([15]; 10% CF sputum vs no sputum): not inhibited; Log10 CFU/mL of sputum ([15]; absence of sputum, 1 hr): 2.3 Log10 CFU/mL of sputum; Log10 CFU/mL of sputum ([15]; absence of sputum, 3 hr): 2.3 Log10 CFU/mL of sputum; Log10 CFU/mL of sputum ([15]; absence of sputum, 24 hr): 2.3 Log10 CFU/mL of sputum; Log10 CFU/mL of sputum ([15]; presence of 10% sputum, 1 hr): 2.3 Log10 CFU/mL of sputum; Log10 CFU/mL of sputum ([15]; presence of 10% sputum, 3 hr): 2.3 Log10 CFU/mL of sputum; Log10 CFU/mL of sputum ([15]; presence of 10% sputum, 24 hr): 2.3 Log10 CFU/mL of sputum; killing by 1 hour, maintained by 24 hours ([15]; time-kill): complete killing; activity (MIC) against Achromobacter spp. [16]: highly active
